Results taken from PubChem BioAssay AID2305 (GlaxoSmithKline (GSK), 2010).
“And” between values parts separate entries of the source, which are not always exact repeats. Equal entries are not always repeated.

What follows are molecules tested on P. falciparum 3D7 growth, pLDH absorbance (assay: P. falciparum 3D7 growth inhibition, dose response, strain 3D7 (AID 2305)).

Row | SMILES | IC50
1 | Oc1ccc(-c2cc(-c3ccc(O)cc3)nc(-c3ccccc3)n2)cc1 | 780 nM
2 | COCCNCc1ccc(-c2ccc(CNc3ccc4ncccc4c3)cc2)cc1 | 1040 nM
3 | Oc1ccc(Cl)cc1CN1CCC2(CCCN(CC3CCC3)C2)C1 (configuration not stated) | 370 nM
4 | Cc1noc(C)c1-c1cccc(CNCc2ccc(-c3cccc(-c4nc5ccc(C(F)(F)F)cc5[nH]4)c3)cc2)c1 | 560 nM
5 | CCCc1cn2c3c(cc(C(=O)N[C@@H](Cc4ccccc4)[C@H](O)CNC4CCOCC4)cc13)N(C)S(=O)(=O)CC2 | 50 nM
6 | CCc1ccc(CN2CCC(NC(=O)c3ccc(-c4ccc(N(C)C)cc4)s3)CC2)cc1 | 1210 nM
7 | CC(C)(C)C(=O)Nc1ccc(C(=O)Nc2cccc(-c3nc4ccccc4[nH]3)c2)cc1 | 280 nM
8 | Cc1[nH]nc2cc(F)c(-c3cc(OC[C@@H](N)Cc4ccccc4)cnc3-c3ccoc3)cc12 | 1040 nM
9 | COc1cccc(CCc2nc3c(N4CCC(Cc5ccccc5)CC4)cccc3n2CC2CNCCO2)c1 (configuration not stated) | 800 nM
10 | Fc1ccc2nc(-c3ccc(-c4ccc(CNCCc5cccnc5)cc4)s3)[nH]c2c1 | 240 nM
11 | COc1ccccc1-n1c(SCC(=O)c2ccc3c(c2)CC(=O)N3C)nnc1-c1cccs1 | 960 nM
12 | CC(=O)Nc1nc(C(=O)Nc2cccc(-c3ccc4c(cnn4CC4CC4)c3)c2)cs1 | 740 nM
13 | O=C(Cc1cccnc1)N(Cc1ccc(-c2ccc(CNCc3cccnc3)cn2)cc1)C1CCN(Cc2ccccc2)CC1 | 800 nM
14 | NC(N)=Nc1nc(-c2cc(NC(=O)C(F)(F)F)cc([N+](=O)[O-])c2)cs1 | 780 nM
15 | COc1ccc2ncc(F)c([C@H](O)CN3CCC(NCc4cc5c(cn4)OCCO5)CC3)c2c1 | 290 nM
16 | CC[C@H]1CN(Cc2cccc(O)c2)CC[C@H]1CCCc1ccnc2ccc(O)cc12 | 530 nM
17 | COc1ccc(-c2cccc(NC(=O)c3cccc(Cl)c3)c2)cc1CN1CCCN(C)CC1 | 230 nM
18 | CN(Cc1cccc(C#N)c1)C1CCN(c2cc(NC(=O)c3cccc(F)c3)ccn2)CC1 | 930 nM
19 | CC1CC(NCCCNc2cc(=O)c3ccccc3[nH]2)c2c1cc(Cl)c(Cl)c2Cl (configuration not stated) | 840 nM
20 | CSc1nccc(-c2ccc(S(=O)(=O)NC3CCC(CN4CCC(c5c[nH]c6ccccc56)CC4)CC3)s2)n1 (configuration not stated) | 250 nM and 810 nM
21 | COc1ccc(NC(=O)Nc2ccc(-c3ccc(-c4nc5c(C)cccc5[nH]4)s3)cc2)cc1 | 180 nM
22 | CN(CCCNCc1cccc2ccccc12)CCCNCc1cccc2ccccc12 | 720 nM
23 | O=C(Nc1ccc(OC2CCN(Cc3ccccc3)CC2)c(Cl)c1)c1ccsc1 | 900 nM
24 | COc1ccccc1C1CCN(C2CCC(NC(=O)/C=C/c3cccc(Cl)c3F)CC2)CC1 (configuration not stated) | 1290 nM
25 | CCCCN(CCCC)CC(O)c1cc(-c2ccc(Cl)cc2)nc2c(Cl)cc(Cl)cc12 (configuration not stated) | 30 nM

Row | SMILES | IC50
26 | N#Cc1ccc(N2CCN(Cc3cccc(-c4cccc(-c5nc6ccc(F)cc6[nH]5)c4)c3)CC2)nc1 | 960 nM
27 | CCCCCCCNc1cc(C)nc2ccc(OC)cc12 | 670 nM
28 | CCCN(Cc1nnc(-c2cccs2)o1)C(=O)CSc1nnnn1-c1cc(C)cc(C)c1 | 500 nM
29 | COc1ccc(CNc2ncc(-c3ccsc3)c(-c3nccs3)n2)cc1OC | 90 nM
30 | CN(CCCCNC(=O)/C=C/c1ccccc1)C1CC2(CCN(C(=O)OC(C)(C)C)CC2)c2ccccc21 (configuration not stated) | 1140 nM
31 | CN1CC=C(c2c[nH]c3ccc(Sc4ccccc4)cc23)CC1 | 360 nM
32 | Cc1csc(-c2nonc2NC(=O)COc2ccccc2C(C)C)n1 | 550 nM
33 | COc1cccc2cc(C(=O)N[C@@H](CC(C)C)C(=O)N[C@H](/C=N/N3CC(=O)NC3=O)CC(C)C)oc12 | 920 nM
34 | N#CC(CC(=O)c1ccc(Cl)cc1)c1cccc(F)c1 (configuration not stated) | 850 nM
35 | CCCCCCCN1[C@@H]2CC[C@H]1CC(CCOc1ccnc3ccc(OC)cc13)C2 (some centres not stated) | 390 nM
36 | Cc1c(-c2cccc(CNCCc3ccc(Cl)cc3)c2)cnc(N)c1C | 1040 nM
37 | CC(Cc1ccc(NC(=O)c2ccc(CC(C)NCc3ccc(Cl)c(Cl)c3)cc2)cc1)NCCc1cccc(Cl)c1 (configuration not stated) | 1000 nM
38 | CC(NC(=O)c1ccc(O)c(-c2ccc(Cl)c(Cl)c2)c1)C(=O)NCCN1CCCC1 (configuration not stated) | 760 nM
39 | CC(C)CCC[C@@H]([C@@H](CC1CCCCC1)C(=O)N[C@@H](CCCCNC(=O)OCc1ccccc1)C(=O)Nc1nccs1)N(O)C=O | 460 nM
40 | CCCc1cc(Cc2cnc(N)nc2N)cc(OCCCCCC(=O)O)c1OC | 160 nM
41 | NC1CCN(Cc2cccc(-c3ccc(-c4nc5ccc(C(F)(F)F)cc5[nH]4)cc3)c2)C1 (configuration not stated) | 700 nM
42 | Oc1ccc2[nH]cc(C3=CCN(Cc4ccccc4)CC3)c2c1 | 980 nM
43 | Cc1cc(CN2CCN(CCOC(c3ccccc3)c3ccccc3)CC2)ccc1O | 930 nM
44 | Cc1[nH]c(C)c(-c2ccc(-c3cc(C(F)(F)F)cc(C(F)(F)F)c3)nc2)c(=O)c1Br | 80 nM
45 | CN(C)c1ccc(C2c3nc[nH]c3CCN2C(=O)Nc2cccc([N+](=O)[O-])c2)cc1 (configuration not stated) | 970 nM
46 | CNc1cc(-c2ccc3ccnc(N)c3c2)nc(N)n1 | 120 nM
47 | O=C(c1cccc(Cl)c1)N1CCN(c2ccc([N+](=O)[O-])c(NC3CC3)c2)CC1 | 870 nM
48 | O=c1cc(NCCCNCc2ccc3c(c2)OC(F)(F)O3)[nH]c2ccccc12 | 770 nM
49 | COc1ccc(Cc2c(C)nc3nc(N)nc(N)c3c2C)cc1 | 280 nM
50 | CC(C)CCNC(=O)C1Cc2c([nH]c3ccc(Br)cc23)C2(CCN(CCc3ccccc3)CC2)N1 (configuration not stated) | 690 nM

Row | SMILES | IC50
51 | O=C(NC1CCC(CN2CCC(c3c[nH]c4ccccc34)CC2)CC1)c1csc(-c2ccc(C(F)(F)F)cc2Cl)n1 (configuration not stated) | 830 nM
52 | Cc1ccc2oc3cc(-c4nn[nH]n4)ccc3c(=O)c2c1 | 90 nM
53 | O=C(NC1CCCCC1)N(Cc1ccccc1-c1ccc(CNCCc2ccccc2)cc1)C1CCN(Cc2ccccc2)CC1 | 930 nM
54 | O=C(Nc1cccc(-c2ccc(-c3nc4ccc(C(F)(F)F)cc4[nH]3)cc2)c1)c1ccoc1 | 710 nM
55 | CCCNc1ccc2nccc(CCN3CCC(NCc4ccc5c(c4)NC(=O)CS5)CC3)c2n1 | 580 nM
56 | COC(=O)c1cccc(NC(=O)NC2CCN(c3ccnc(Nc4cc(OC)c(OC)c(OC)c4)n3)C2)c1 (configuration not stated) | 510 nM
57 | Cc1c(C)n(C2CCCCC2)c2ncnc(OC3CCN(CC(=O)N4CCCC4)CC3)c12 | 1450 nM
58 | CN1CCC(NCc2ccc(-c3ccc(S(=O)(=O)NC4CCC4)s3)cc2)CC1 | 850 nM
59 | Cc1nn(CC(C)C)c2sc(C(=O)N3CCN(S(=O)(=O)c4ccc(C#N)cc4)CC3)cc12 | 740 nM
60 | COc1ccc(NC(=O)Nc2cccc(-c3ccc(-c4nc5c(C)cccc5[nH]4)s3)c2)cc1 | 670 nM
61 | O=C(NCCCNc1nc2ccccc2[nH]1)c1cccc(OC(F)(F)F)c1 | 570 nM
62 | O=C(NCc1ccc(F)cc1)Nc1ccc(-c2ccc(-c3nc4ccccc4[nH]3)cc2)cc1 | 90 nM
63 | COC(=O)c1ccc(-c2ccc(-c3cccnc3)cc2C)cc1 | 660 nM
64 | Cc1cc2ncc(C(N)=O)c(Nc3ccc(N4CCOCC4)cc3)c2cc1S(C)(=O)=O | 670 nM
65 | Cc1cc(NN=Cc2ccccc2[N+](=O)[O-])c2cc(C(F)(F)F)ccc2n1 | 750 nM
66 | CS(=O)(=O)Nc1ccc2c(C3CCN(CCC4CCN(C(=O)/C=C/c5ccc(Cl)c(Cl)c5)CC4)CC3)c[nH]c2c1 | 600 nM
67 | C[C@@H](NCCc1cccc(Cl)c1)[C@@H](O)c1ccc(OCCCCCCOc2ccc([C@H](O)[C@@H](C)NCCc3cccc(Cl)c3)cc2)cc1 | 400 nM
68 | COc1ccc(CN2CCC(NCc3cccc(-n4ccnc4)c3)CC2)cc1 | 630 nM
69 | O=C(Nc1ccc(F)cc1)NC1CCN(CCCCCNC(=O)[C@@H]2C[C@H]2c2ccc(Cl)c(Cl)c2)CC1 | 990 nM
70 | CC1(C)N=C(N)N=C(N)N1OCCCO | 220 nM
71 | CCn1c(SCc2ccc(F)cc2)nc2sc3c(c2c1=O)CCN(C)C3 | 250 nM
72 | Cn1nccc1C(=O)NCCNCc1ccc(-c2ccc(-c3nc4ccccc4[nH]3)s2)cc1 | 560 nM
73 | CNCCNCc1ccc(-c2ccc(-c3nc4ccc(F)cc4[nH]3)s2)cc1 | 770 nM
74 | CCCCCN1CCC(CNS(=O)(=O)c2ccc(C(=O)Nc3cccc(C(F)(F)F)c3)cc2)CC1 | 750 nM
75 | CN1C(C)(C)CC(NC(=O)c2ccc(-c3cc4cc(Cl)c(Cl)cc4[nH]3)o2)CC1(C)C | 1120 nM

Row | SMILES | IC50
76 | CC(c1cccc(S(=O)(=O)NCc2cccc(C(F)(F)F)c2)c1)N1CCC(N2CCCCC2)CC1 (configuration not stated) | 690 nM
77 | O=C(C=Cc1ccc(Cl)c(Cl)c1)NCCCCCN1CCC(CCNS(=O)(=O)c2ccc(Br)cc2)CC1 | 1120 nM
78 | COc1ccc2nccc(N3CCN(CCNCc4ccc5c(n4)NC(=O)CS5)CC3)c2c1 | 950 nM
79 | CCc1c(CCNCCCCCCNCCc2ccccc2)ccc(OC)c1OC | 800 nM
80 | Cn1nccc1C(=O)NCCNCc1ccc(-c2cccc(-c3nc4ccc(C(F)(F)F)cc4[nH]3)c2)cc1 | 120 nM
81 | Cc1ccc(NC(=O)c2cccc(CN3CCCN(CC4CCCCC4)CC3)c2)cc1F | 600 nM
82 | Cc1cc(NC(=O)NCCN2CCC(NS(=O)(=O)c3ccc(Br)cc3)C2)c2ccccc2n1 (configuration not stated) | 600 nM
83 | Cc1noc(C)c1-c1ccc2c(Nc3ccccc3C(C)(C)C)c(C(=O)NCc3cccc4ccccc34)cnc2c1 | 940 nM
84 | N#Cc1ccc2c(c1)CCN(CCC1CCC(NC(=O)/C=C/c3ccc4ccccc4c3)CC1)CC2 (configuration not stated) | 720 nM
85 | CN(C)CCOc1cc(NC(=O)Nc2ccc(-c3ccncc3)c3ccccc23)ccc1I | 780 nM
86 | CC(C)C[C@H](Nc1ccnc(NCC2CCCCC2)n1)C(=O)Nc1ccccc1 | 1430 nM
87 | COc1ccc(CN(C)Cc2cc(C(C)C)c(C)cc2O)cc1F | 650 nM
88 | CC(=O)N(C)c1cccc(C(=O)Nc2ccc(-c3cccc(-c4nc5ccc(C(F)(F)F)cc5[nH]4)c3)cc2)c1 | 720 nM
89 | COc1cc(F)c2nccc([C@@H](O)CN3CC[C@@H](NC(=O)OCc4ccccc4)[C@@H](F)C3)c2c1 | 410 nM
90 | Cc1[nH]c2cc(F)ccc2c1C1=CCN(CCCCC2(C)C(=O)Nc3ccccc32)CC1 (configuration not stated) | 290 nM
91 | COc1ccccc1CCNc1nc(C)cc(NCCC(=O)NCCOc2ccccc2)n1 | 1370 nM
92 | COc1ccc(-c2cccc(CNC3CCN(CC4Cn5c(=O)ccc6ccc(F)c4c65)CC3)c2)cc1 (configuration not stated) | 1090 nM
93 | COc1ccc(NC(=O)/C=C/c2cc(Br)ccc2F)cc1OCCN(C(C)C)C(C)C | 760 nM
94 | COc1ccc(OC)c(C=NNc2nc3ccccc3[nH]2)c1 | 730 nM
95 | COc1ccc(OC)c(CC2c3ccc(Br)c(O)c3CCN2C)c1 (configuration not stated) | 750 nM
96 | CC(=O)Nc1ccc(OCCCCN(Cc2ccccc2C(F)(F)F)c2ccc(C(F)(F)F)c(C#N)c2)c(Cl)c1 | 550 nM
97 | Cc1cccc2[nH]c(-c3ccc(-c4ccc(NC(=O)C(=O)c5cccn5C)cc4)cc3)nc12 | 820 nM
